Read-outs that look alike come from different tables or passages of the source. Positions of bridges follow the written chain, without caps; N, C: chain ends. No end group written: not given here.
How the values were obtained:
A549 cells = experiment: A549 proliferation + stress assay (restoration of viability of Taxol-treated cells, CellTiter-Glo); type: cell-based, human; parameters: key to Estimated Activity in A549 proliferation + stress assay: Inactive: no activity up to 100 μM; WEAK: some or variable restoration of cell viability at 50-100 μM; MODERATE: moderate dose-dependent restoration of cell viability at >25 μM; STRONG: clear dose-dependent restoration of cell viability from 1-5 μM upwards; conditions: for Estimated Activity in A549 proliferation + stress assay: 350 μM Taxol, 16 hours, peptide 1-100 μM
Description: An assay was developed that involves stressing cells with a dose of the chemotherapeutic agent, Taxol, that causes a 50% inhibition of cell viability when compared to untreated cells. Peptides were then added to the cell cultures at increasing concentrations to assess their ability to restore the viability of the Taxol-treated cells.
Briefly, A549 cells were cultured in opaque-walled multiwell plates with 50000 A549 cells/well in culture medium (DMEM medium ref 11960-044 Thermoscientific, +10% FBS ref 10270-106 Gibco, Thermoscientific, +1% Na pyruvate ref S8636-100 ML, Sigma, +1%, Glutamax ref35050061, Thermoscientific, +1% Penicillin-Streptomycin, ref 11074440001, Sigma) 100 μl per well for 96-well plates. Control wells containing medium without cells were used to obtain a value for background luminescence. Cells were incubated at 37° C. in 5% CO2 overnight.
100 μL of medium+DMSO+peptides or medium+Taxol+peptides (at the different concentrations) were added to each well and incubated for 16 hours at 37° C. 5% CO2.
Cell morphology, viability and confluency were assessed by phase contrast microscopy. The CellTiter-Glo® Luminescent Cell Viability Assay (G7571, Promega—a homogeneous method to determine the number of viable cells in culture based on quantitation of the ATP present) was then used to quantify the number of metabolically active cells, according to the manufacturer's instructions. 100 μl volume of CellTiter-Glo® Reagent was added to the 100 μL volume of cell culture medium present in each well, Contents were mixed for 2 minutes on an orbital shaker to induce cell lysis and after incubating the plates at room temperature for 10 minutes to stabilize luminescent signal luminescence was recorded with an integration time of 0.5 seconds using a CLARIOstar multi well luminometer (BMG Labtech)

HKx31 (H3N2) = type: in vivo, mice; parameters: key to PMN activity score / Viral titre activity score / BAL IL-6 activity score: 0: inactive; 1: less active than the peptide of SEQ ID NO:38; 2: comparable or more active than the peptide of SEQ ID NO:38; conditions: for IL-6 levels in the BAL fluid / viral titres: 10 mg/kg single dose; for viral titres: day 3; for BAL IL-6 activity score / PMN activity score / Viral titre activity score: 10 mg/kg; for reducing the PMN infiltrate in BAL fluid, compared with the peptide of SEQ ID NO:38: single 10 mg/kg dose
[1] = PMN infiltrate in BAL fluid, […], relative to SEQ ID NO:38

| Substance | Estimated Activity in A549 proliferation + stress assay (A549 cells) | restoration of A549 viability (A549 cells; Taxol-treated A549 cells) | IL-6 levels in the BAL fluid (HKx31 (H3N2)) | viral titres (HKx31 (H3N2)) | BAL IL-6 activity score (HKx31 (H3N2); mouse, in vivo) | PMN activity score (HKx31 (H3N2); mouse, in vivo) | Viral titre activity score (HKx31 (H3N2); mouse, in vivo) | reducing the PMN infiltrate in BAL fluid, compared with the peptide of SEQ ID NO:38 (HKx31 (H3N2)) | PMN activity score (HKx31 (H3N2); [1]) |
| --- | --- | --- | --- | --- | --- | --- | --- | --- | --- |
| 11 (SCRSRPVESSC) [compound 11] | Inactive | did not | – | – | – | – | – | – | – |
| 23 (RPVESS) [compound 23] | – | – | as effective | effective | 1 | 1 | 2 | relatively less effective | – |
| 43 (RALRTK) [compound 43] | – | – | – | – | – | – | – | did not show any changes | – |
| 59 (RALNS) [compound 59] | WEAK-MODERATE | – | – | – | 2 | 2 | 2 | – | – |
| 44 (HIVESS) [compound 44] | – | – | as effective | – | 2 | – | 1 | did not show any changes | 0 |
| 29 (RIIHNN) [compound 29] | – | – | as effective | effective | 2 | 2 | 2 | as effective | – |
| 41 (RALNSS; SITE 1 Arg 1 is bonded to Ser 6; SITE 6 Ser 6 is bonded to Arg 1) [compound 41] | – | – | – | – | – | 1 | – | relatively less effective | – |
| 47 (RAVESS) [compound 47] | – | – | as effective | – | 2 | – | 1 | – | 0 |
| 8 (CSGRVSECGF; disulfide 1-8) [compound 8] | Inactive | – | – | – | – | – | – | – | – |
